This note sets out measurements from patent US20190330140A1, “Compound for Use in Enzymatic Reaction and Mass Spectrometry Method” (HITACHI HIGH-TECHNOLOGIES CORPORATION, priority 2016, published 2019).

This assay relates to galactosidase. In words: enzymatic reaction with galactosidase, product measured. In kind it is biochemical. The conditions noted are these: 0.5 ng/ml galactosidase, 1 hour. How it is done:
When a solution of 20 ng/ml of HVG and 0.5 ng/ml of galactosidase in a 10 mmol/L phosphate buffer (pH 7.3) containing 5% (v/v) of methanol and 1 mmol of magnesium chloride was prepared and was reacted at 37° C. for 1 hour, 0.532 ng/ml of HV was then produced. […] It was found from this example that HVG has the same level of enzymatic susceptibility as p-nitrophenylgalactoside which is known as a good substrate for galactosidases.

Turning to `O=[N+]([O-])c1ccc(O[C@@H]2O[C@H](CO)[C@H](O)[C@H](O)[C@H]2O)cc1` [p-Nitrophenyl galactoside], the “p-nitrophenol produced from substrate” value (substrate in place of HVG, phosphate buffer pH 7.3, 37° C.) was determined as 0.532 ng/mL.
Turning to `COc1ccc(CCN(C)CCCC(C(=O)Nc2ccc(O[C@@H]3OC(CO)[C@H](O)[C@@H](O)C3O)cc2)(c2ccc(OC)c(OC)c2)C(C)C)cc1OC` (some centres unmarked) [HVG], for the setting “20 ng/ml HVG, 10 mmol/L phosphate buffer pH 7.3, 5% methanol, MgCl2, 37° C.”, the “HV produced from substrate” value was determined as 0.532 ng/mL.
